# Experimental data published in US11167007B2, “FOXM1 modulators and uses thereof” (City of Hope, priority 2016, dated 2021).
# Experiments:
# [1] = test system: AR activity in spinal cord; test: RT-qPCR of androgen-regulated transcripts in spinal cord; assay type: in vivo, rat; settings: rats, compared to control treatment, FIG. 5F
# Description: (§1) Animals and Drugs. This study was carried out in strict accordance with the recommendations in the Guide for the Care and Use of Laboratory Animals of the National Institutes of Health. All experiments were performed under the IUCAC approval of City of Hope. Animals were purchased from Jackson Laboratory (Bar Harbor, Main). For the pilot pharmacokinetic experiment, nine male Sprague Dawley rats (n=3) were administered 1, 10, or 100 mg/kg intraperitoneal injections thrice per week for four weeks. One hour following the final dose, blood and spinal fluid were collected and analyzed by mass spectrometry. For the efficacy experiment, rats were divided into 3 groups (n=7) as follows: intact, castrated, and thiostrepton. […] Following a treatment period of 7 days, rats were euthanized and organs harvested, weighed and processed for quantitative RT-PCR.
# (§2) qRT-PCR. The quantitative RT-PCR method has been described by Jones et al, ACS Chem Biol, 3(7):412-8 (2008). […] Differences between experimental (x) and control (y) samples were normalized to RPL19 transcript levels (androgen unresponsive) and determined with the following calculation: (2^(Ctsgene1-Ctygene1))/(2^(CtxRPL19-CtyRPL19)) One-way analysis of variance was applied to determine statistical significant among groups, where p<0.05 was considered significant. […]
# [2] = molecular target: T1, FOXM1 (Rattus norvegicus, UniProt P97691); test: RT-qPCR of FOXM1 target gene transcripts in spinal cord; assay type: in vivo; settings: rats, compared to intact controls, FIG. 5G
# T1 construct: from tissue; host or cells: Sprague Dawley rat spinal cord
# T1 sequence (P97691 1-759): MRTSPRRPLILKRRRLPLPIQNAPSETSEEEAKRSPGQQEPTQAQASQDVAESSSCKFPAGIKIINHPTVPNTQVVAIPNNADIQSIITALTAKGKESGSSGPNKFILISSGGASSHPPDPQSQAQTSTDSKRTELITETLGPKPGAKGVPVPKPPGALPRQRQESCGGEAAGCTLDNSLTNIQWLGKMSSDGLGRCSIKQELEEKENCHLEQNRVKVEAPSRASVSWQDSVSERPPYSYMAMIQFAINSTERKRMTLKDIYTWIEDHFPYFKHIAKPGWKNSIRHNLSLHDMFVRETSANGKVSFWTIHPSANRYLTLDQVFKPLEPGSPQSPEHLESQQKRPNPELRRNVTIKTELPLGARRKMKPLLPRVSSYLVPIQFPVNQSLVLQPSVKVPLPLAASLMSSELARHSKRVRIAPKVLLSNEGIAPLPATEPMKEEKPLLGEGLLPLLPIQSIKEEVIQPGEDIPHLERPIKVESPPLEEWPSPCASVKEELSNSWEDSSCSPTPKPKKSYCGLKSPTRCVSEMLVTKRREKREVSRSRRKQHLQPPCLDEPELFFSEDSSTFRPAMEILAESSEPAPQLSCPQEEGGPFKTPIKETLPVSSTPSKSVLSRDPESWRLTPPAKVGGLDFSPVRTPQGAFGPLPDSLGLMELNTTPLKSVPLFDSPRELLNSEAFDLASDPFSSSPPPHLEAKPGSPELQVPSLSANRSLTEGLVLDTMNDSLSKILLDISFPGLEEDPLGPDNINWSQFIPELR
# Description: as §1, §2
compound,measurement,setting,value
C=C(NC(=O)C(=C)NC(=O)c1csc(C2=N[C@@H]3c4csc(n4)[C@H]4NC(=O)c5csc(n5)[C@H]([C@](C)(O)[C@@H](C)O)NC(=O)[C@H]5CSC(=N5)/C(=C/C)NC(=O)[C@H]([C@@H](C)O)NC(=O)c5csc(n5)[C@]3(CC2)NC(=O)[C@H](C)NC(=O)C(=C)NC(=O)[C@H](C)NC(=O)[C@H]([C@@H](C)CC)N[C@@H]2C=Cc3c([C@H](C)O)cc(nc3[C@H]2O)C(=O)O[C@@H]4C)n1)C(N)=O [thiostrepton],androgen-dependent gene transcript levels in spinal cord,[1],decreases in three androgen-dependent genes
same,transcript levels of FOXM1 target genes Ccndl and Sox2,[2],decreased
